Test results reported in ChEMBL document CHEMBL5032529, “Synthesis and evaluation of tetrahydroisoquinoline derivatives against Trypanosoma brucei rhodesiense” (Eur J Med Chem, 2021).

What was measured:
Trypanosoma brucei = assay: Antitrypanosomal activity against bloodstream form of Trypanosoma brucei assessed as parasite growth inhibition incubated for 3 days by resazurin staining based assay; assay type: functional, organism-based; details: 72 h
[1] = Inhibition of Trypanosoma Trypanothione reductase in presence of NADPH by DTNB based colorimetric assay
[2] = tested on: Trypanosoma brucei rhodesiense; assay: Antitrypanosomal activity against Trypanosoma brucei rhodesiense STIB900 assessed as parasite growth inhibition; assay type: functional, organism-based
[3] = tested on: Trypanosoma brucei rhodesiense; assay: Antitrypanosomal activity against Trypanosoma brucei rhodesiense STIB900 assessed as parasite growth inhibition measured after 72 hrs by alamar blue dye based spectrofluorimetric analysis; assay type: functional, organism-based; details: STIB900, 72 h
Vero = assay: Cytotoxicity against African green monkey Vero cells assessed as reduction in cell viability measured after 72 hrs by SRB assay; assay type: cell-based; details: Chlorocebus sabaeus
[4] = Selectivity index, ratio of IC50 for cytotoxicity against African green monkey Vero cells to IC50 for antitrypanosomal activity against Trypanosoma brucei rhodesiense STI B900; assay type: toxicity, cell-based; details: read-out: Ratio IC50

EC50 (Trypanosoma brucei) [µM] | IC50 [1] [µM] | IC50 [2] [µM] | IC50 [3] [µM] | Structure (SMILES) | IC50 (Vero) [µM] | selectivity ratio [4]
0.775 | 0.75 | – | – | Clc1ccc2c(c1)N(CCCN1CCN(CCCc3ccccc3)CC1)c1ccccc1S2 | – | –
– | – | 0.015 | – | C=C1C[C@H]2OC(=O)C(=C)[C@@H]2[C@H](OC(=O)/C(C)=C/C)C[C@@]2(C)OC1=CC2=O | – | –
– | – | – | 2.54 | OC1CNCc2c(OCc3ccc(Br)cc3)cccc21 (stereo unspecified) | > 50 | > 19.7
– | – | – | 21.7 | CN1Cc2ccc(OCCCn3ccnc3[N+](=O)[O-])cc2[C@@H](O)C1 | > 50 | > 2.3
– | – | – | 20.7 | Cc1ccccc1COc1ccc2c(c1)[C@@H](O)CN(C)C2 | > 100 | > 4.8
– | – | – | 8.4 | OC1CN(Cc2ccccc2)Cc2ccc(OCc3ccccc3)cc21 (stereo unspecified) | 31.8 | 3.8
– | – | – | 16.9 | CN1Cc2ccc(OCc3ccc([N+](=O)[O-])cc3)cc2[C@@H](O)C1 | > 50 | > 3

Structure (SMILES) | EC50 (Trypanosoma brucei) [µM] | IC50 [1] [µM] | IC50 [2] [µM] | IC50 [3] [µM] | IC50 (Vero) [µM] | selectivity ratio [4]
CN1CCc2cc(OCc3ccccc3)ccc2C1 | – | – | – | 4.4 | > 100 | > 22.7
